Source: patent US8283299B2, “Skin and hand cleaning compositions with hydrophilic emollients” (Evonik Stockhausen GmbH, priority 2007, dated 2012)

Key:
[1] = Determination of the HLB value; format: physicochemical; conditions: 5% strength dispersion/solution in water, visual comparison with emulsifiers of known HLB
Protocol: The HLB value is determined by preparing a 5% strength dispersion/solution of the substance to be tested, here the hydrophilic emollient, in water, and determining the solubility in water. The assessment takes place visually: clouding, solubility, degree of dispersion. The HLB value is ascertained through comparison with solutions of emulsifiers whose HLB value is known.

[2] = cited from earlier work

Substance	HLB value (ascertained) [1]	HLB value according to manufacturer [2]
polyglyceryl-3 caprate [TEGOSOFT PC 31]	HLB: 14	
PEG-7 glyceryl cocoate [Glycerox HE]		HLB: 11
polyglyceryl-4 caprate [TEGOSOFT PC 41]	HLB: 16	
